Experimental data published in patent US7598242B2 (priority 2001, dated 2009).

Target: T1, purified catalytic domain of recombinant human TACE (rhTACEc) (Homo sapiens, UniProt P78536, N452Q/S266A)
T1 construct: Residue 215 to 477 with two mutation (S266A and N452Q) and a 6×His tail; 6xHis (C); made in house; host or cells: baculovirus/Hi5 insect cells
Assay: biochemical

T1 sequence (P78536 215-477 S266A/N452Q): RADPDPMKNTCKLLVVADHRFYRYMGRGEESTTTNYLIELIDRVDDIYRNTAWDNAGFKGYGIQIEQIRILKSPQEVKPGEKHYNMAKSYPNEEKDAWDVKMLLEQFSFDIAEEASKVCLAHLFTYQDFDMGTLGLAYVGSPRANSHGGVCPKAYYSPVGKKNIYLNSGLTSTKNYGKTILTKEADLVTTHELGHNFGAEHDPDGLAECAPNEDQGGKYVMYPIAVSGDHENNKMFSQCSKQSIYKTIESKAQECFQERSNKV

Structure (SMILES) | Ki [µM]
NC(=O)[C@@]1(Cc2ccc(OCc3cc(-c4ccccn4)nc4ccccc34)c(F)c2)C[C@@H]1C(=O)NO [CS] | < 0.02
CCOC(=O)[C@@]1(Cc2ccc(OCc3ccnc(N4CCOCC4)c3)cc2)C[C@@H]1C(=O)NO [LH] | < 0.02
CC1CCCN1c1cc(COc2ccc(C[C@]3(C(N)=O)C[C@@H]3C(=O)NO)cc2F)c2ccccc2n1 (some centres unmarked) [FV] | < 0.02
NC(=O)[C@@]1(Cc2ccc(OCc3cc(-c4cccnc4)nc4ccccc34)cc2)C[C@@H]1C(=O)NO [DA] | < 0.02
COC(=O)[C@@]1(Cc2ccc(OCc3cc(N4CCN(C)CC4)nc4ccccc34)c(F)c2)C[C@@H]1C(=O)NO [GA] | < 0.02
Cc1cc(COc2ccc(C[C@]3(C(N)=O)C[C@@H]3C(=O)NO)cc2Br)c2ccccc2n1 [FQ] | < 0.02
COC(=O)[C@@]1(Cc2ccc(OCc3cc(N4CCOCC4)nc4ccccc34)c(F)c2)C[C@@H]1C(=O)NO [FZ] | < 0.02
CN1CCN(c2cc(COc3ccc(C[C@]4(C(N)=O)C[C@@H]4C(=O)NO)cc3F)c3ccccc3n2)CC1 [FX] | < 0.02
Cc1cc(COc2cccc([C@@]3(C(=O)NC4CCCCC4)C[C@H]3C(=O)NO)c2)c2ccccc2n1 [JY] | < 0.02
Cc1cc(COc2cccc([C@@]3(C(=O)OC(C)C)C[C@H]3C(=O)NO)c2)c2ccccc2n1 [KM] | < 0.02
Cc1cc(COc2ccc(C[C@]3(C(=O)NCc4cccnc4)C[C@@H]3C(=O)NO)cc2)c2ccccc2n1 [P] | < 0.02
CCOC(=O)[C@@]1(Cc2ccc(OCc3cc(-c4cccnc4)nc4ccc(C)cc34)c(F)c2)C[C@@H]1C(=O)NO [GV] | < 0.02
CCc1cc(COc2ccc(C[C@]3(C(=O)N4CC[C@H](O)C4)C[C@@H]3C(=O)NO)cc2)c2ccccc2n1 [JC] | < 0.02
CCc1cc(COc2ccc(C[C@]3(C(=O)N4CC[C@H](O)C4)C[C@@H]3C(=O)NO)cc2F)c2ccccc2n1 [JR] | < 0.02
Cc1cc(COc2ccc(C[C@]3(C(=O)NCc4ccccc4)C[C@@H]3C(=O)NO)cc2)c2ccccc2n1 [O] | < 0.02
CCc1cc(COc2ccc(C[C@]3(C(=O)N4CC[C@H](N(C)C)C4)C[C@@H]3C(=O)NO)cc2F)c2ccccc2n1 [JT] | < 0.02
NC(=O)[C@@]1(Cc2ccc(OCc3cc(C4CC4)nc4ccccc34)c(F)c2)C[C@@H]1C(=O)NO [CU] | < 0.02
CN(C)CCN(C)C(=O)[C@@]1(Cc2ccc(OCc3cc(-c4ccccc4)nc4ccccc34)cc2)C[C@@H]1C(=O)NO [JD] | < 0.02
Cc1cc(COc2ccc(C[C@]3(C#N)C[C@@H]3C(=O)NO)cc2)c2ccccc2n1 [FG] | < 0.02
CNc1cc(COc2ccc(C[C@]3(C(=O)OC)C[C@@H]3C(=O)NO)cc2F)c2ccccc2n1 [GB] | < 0.02
COC(=O)[C@@]1(Cc2ccc(OCc3cc(N4CCCC4)nc4ccccc34)c(F)c2)C[C@@H]1C(=O)NO [FY] | < 0.02
CCc1cc(COc2ccc(C[C@]3(C(=O)N4CC[C@H](N(C)C)C4)C[C@@H]3C(=O)NO)cc2)c2ccccc2n1 [JF] | < 0.02

Structure (SMILES) | Ki [µM]
CN(C)c1cc(COc2ccc(C[C@]3(C(N)=O)C[C@@H]3C(=O)NO)cc2F)c2ccccc2n1 [CN] | < 0.02
Cc1cc(COc2ccc(C[C@]3(C(N)=O)C[C@@H]3C(=O)NO)cc2F)c2ccccc2n1 [CV] | < 0.02
CN(C)CCNC(=O)[C@@]1(Cc2ccc(OCc3cc(C(F)(F)F)nc4ccccc34)cc2)C[C@@H]1C(=O)NO [BP] | < 0.02
Cc1cc(COc2ccc(C[C@]3(C(=O)N(C)C)C[C@@H]3C(=O)NO)cc2F)c2ccccc2n1 [JO] | < 0.02
CCc1cc(COc2ccc(C[C@]3(C(N)=O)C[C@@H]3C(=O)NO)cc2F)c2ccccc2n1 [CO] | < 0.02
CN(C)C1CCN(C(=O)[C@@]2(Cc3ccc(OCc4cc(-c5ccncc5)nc5ccccc45)c(F)c3)C[C@@H]2C(=O)NO)C1 (some centres unmarked) [JV] | < 0.02
Cc1cc(COc2ccc(C[C@]3(C(=O)N(C)C)C[C@@H]3C(=O)NO)cc2)c2ccccc2n1 [BL] | < 0.02
CCc1cc(COc2ccc(C[C@]3(C(=O)OC)C[C@@H]3C(=O)NO)cc2F)c2ccccc2n1 [DB] | < 0.02
CCc1cc(COc2ccc(C[C@]3(C(=O)N4CC[C@@H](NC(=O)C(F)(F)F)C4)C[C@@H]3C(=O)NO)cc2F)c2ccccc2n1 [JU] | < 0.02
CN(C)C(=O)[C@@]1(Cc2ccc(OCc3cc(C(F)(F)F)nc4ccccc34)cc2)C[C@@H]1C(=O)NO [BO] | < 0.02
NC(=O)[C@@]1(Cc2ccc(OCc3cc(-c4ccc(Cl)cc4)nc4ccccc34)c(F)c2)C[C@@H]1C(=O)NO [CY] | < 0.02
O=C(NO)[C@H]1C[C@]1(Cc1ccc(OCc2cc(-c3ccccc3)nc3ccccc23)cc1)C(=O)N1CC[C@H](NC(=O)C(F)(F)F)C1 [JE] | < 0.02
N[C@@H]1CCN(C(=O)[C@@]2(Cc3ccc(OCc4cc(-c5ccccc5)nc5ccccc45)cc3)C[C@@H]2C(=O)NO)C1 [KZ] | < 0.02
COC(=O)[C@@]1(Cc2ccc(OCc3cc(-c4ccncc4)nc4ccccc34)c(F)c2)C[C@@H]1C(=O)NO [LI] | < 0.02
CCc1cc(COc2ccc(C[C@]3(C(=O)N4CC[C@@H](N)C4)C[C@@H]3C(=O)NO)cc2F)c2ccccc2n1 [JS] | < 0.02
O=C1CN(C(=O)[C@@]2(Cc3ccc(OCc4cc(-c5ccccc5)nc5ccccc45)cc3)C[C@@H]2C(=O)NO)CCN1 [BQ] | < 0.02
NC(=O)[C@@]1(Cc2ccc(OCc3cc(-c4ccccc4Cl)nc4ccccc34)c(F)c2)C[C@@H]1C(=O)NO [CW] | < 0.02
CN(C)C(=O)[C@@]1(Cc2ccc(OCc3cc(-c4ccncc4)nc4ccccc34)c(F)c2)C[C@@H]1C(=O)NO [CZ] | < 0.02
CCCc1cc(COc2ccc(C[C@]3(C(N)=O)C[C@@H]3C(=O)NO)cc2F)c2ccccc2n1 [CR] | < 0.02
Cc1cc(COc2ccc(C[C@]3(C(N)=O)C[C@@H]3C(=O)NO)cc2Cl)c2ccccc2n1 [FN] | < 0.02
Cc1cc(COc2ccc(C[C@]3(C(=O)N4CCC[C@H]4CO)C[C@@H]3C(=O)NO)cc2)c2ccccc2n1 [JG] | < 0.02
NC(=O)[C@@]1(Cc2ccc(OCc3cc(N4CCCCC4)nc4ccccc34)c(F)c2)C[C@@H]1C(=O)NO [LM] | < 0.02
